Starred links: 1 amine or outer side, 2 acyl side, 3 side chain; linkers in the order of their positions; H or OH if unused. Positions of bridges follow the written chain, without caps; N, C: chain ends. Non-standard residues stand in square brackets, D forms with d. Residues, ends and D or L forms follow the SMILES beside them. Phe(4-CONH2) = NC(=O)c1ccc(C[C@H](N)C(=O)O)cc1; γGlu = O=C(O)[C@H](CCC(=O)[*:2])N[*:1]; βAsp = O=C(O)[C@H](CC(=O)[*:2])N[*:1]; NMeL = CN[C@@H](CC(C)C)C(=O)O; Ahp(2) = CCCCC[C@H](N)C(=O)O; NMeNle = CCCC[C@H](NC)C(=O)O; Tle = CC(C)(C)[C@H](N)C(=O)O; NMeS = CN[C@@H](CO)C(=O)O; NHexGly = CCCCCCNCC(=O)O; NMeA = CN[C@@H](C)C(=O)O; Nle = CCCC[C@H](N)C(=O)O; Orn = NCCC[C@H](N)C(=O)O; Aun = NCCCCCCCCCCC(=O)O; AEEA = NCCOCCOCC(=O)O
Each molecule was assayed against T1, mouse VISTA (mVISTA) (Mus musculus, UniProt Q9D659) (assay: Cell-Based Binding High-Content Assay For mVISTA (HC CBA mVISTA)). Settings: 293T cells expressing mouse VISTA; competition with biotinylated peptide (2 nM); read-out: CBA mVISTA IC50.
T1 construct: expressed in transfected cells; host or cells: Human embryonic kidney 293T cells
T1 sequence (Q9D659 33-308): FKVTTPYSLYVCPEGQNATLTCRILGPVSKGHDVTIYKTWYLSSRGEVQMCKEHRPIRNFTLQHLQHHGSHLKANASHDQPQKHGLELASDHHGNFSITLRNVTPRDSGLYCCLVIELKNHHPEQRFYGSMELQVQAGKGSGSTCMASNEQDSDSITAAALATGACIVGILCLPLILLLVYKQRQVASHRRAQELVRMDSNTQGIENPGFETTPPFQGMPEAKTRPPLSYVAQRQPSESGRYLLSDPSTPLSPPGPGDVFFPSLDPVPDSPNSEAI
Outline: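 mVISTA-293T, 4,000 cells/well; cpd ± washout step; biotin-peptide 2 nM final, 30 min RT; SA-Alexa 647 30 min; formaldehyde/Hoechst fix; HCS imaging; 4PL IC50.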

| IC50 | SMILES |
| --- | --- |
| 6.6 nM | CCCCCCN1CC(=O)N[C@@H](Cc2ccc(O)cc2)C(=O)N[C@@H](CCCC)C(=O)N[C@@H](CC(=O)O)C(=O)N[C@@H](CCCNC(=N)N)C(=O)N(C)[C@@H](CCCC)C(=O)N[C@@H](CCCCC)C(=O)N2CCC[C@H]2C(=O)N[C@@H](C(C)C)C(=O)N[C@@H](CC(=O)O)C(=O)N[C@H](C(=O)N[C@@H](CC(=O)O)C(N)=O)CSCC(=O)N[C@@H](Cc2ccccc2)C(=O)N[C@@H](Cc2ccc(O)cc2)C(=O)N[C@@H](CC(=O)O)C1=O [Example 1073] ({CH2CO}-FYD[NHexGly]Y[Nle]DR[NMeNle][Ahp(2)]PVDCD-NH2; thioether N-14) |

Same assay, conditions: 293T cells expressing mouse VISTA; competition with biotinylated peptide (2 nM); read-out: HC CBA mVISTA IC50

| SMILES | IC50 |
| --- | --- |
| CCCCCCN1CC(=O)N[C@@H](Cc2ccc(O)cc2)C(=O)N[C@@H](CCCC)C(=O)N[C@@H](CC(=O)O)C(=O)N[C@@H](CCCNC(=N)N)C(=O)N[C@@H](CC(C)C)C(=O)N[C@@H](CCCCC)C(=O)N2CCC[C@H]2C(=O)N[C@@H](C(C)C)C(=O)N[C@@H](CC(=O)O)C(=O)N[C@H](C(=O)N[C@H](CC(=O)O)C(N)=O)CSCC(=O)N[C@@H](Cc2ccccc2)C(=O)N[C@@H](Cc2ccc(O)cc2)C(=O)N[C@@H](CC(=O)O)C1=O [Example 1003] ({CH2CO}-FYD[NHexGly]Y[Nle]DRL[Ahp(2)]PVDC[dD]-NH2; thioether N-14) | 18.8 nM |
| CCCCCCN1CC(=O)N[C@@H](Cc2ccc(O)cc2)C(=O)N[C@@H](CCCC)C(=O)NCC(=O)N[C@@H](CCCNC(=N)N)C(=O)N[C@@H](CC(C)C)C(=O)N[C@@H](CCCCC)C(=O)N2CCC[C@H]2C(=O)N[C@@H](C(C)C)C(=O)N[C@@H](CO)C(=O)N[C@H](C(=O)NCC(N)=O)CSCC(=O)N[C@@H](Cc2ccccc2)C(=O)N[C@@H](Cc2ccc(O)cc2)C(=O)N[C@@H](CC(=O)O)C1=O [Example 1050] ({CH2CO}-FYD[NHexGly]Y[Nle]GRL[Ahp(2)]PVSCG-NH2; thioether N-14) | 29.9 nM |
| CCCCCCN1CC(=O)N[C@@H](Cc2ccc(O)cc2)C(=O)N[C@@H](CC(C)C)C(=O)N[C@@H](CC(=O)O)C(=O)N[C@@H](CCCNC(=N)N)C(=O)N[C@@H](CC(C)C)C(=O)N[C@@H](CCCCC)C(=O)N2CCC[C@H]2C(=O)N[C@@H](C(C)C)C(=O)N[C@@H](CC(=O)O)C(=O)N[C@H](C(=O)NCC(N)=O)CSCC(=O)N[C@@H](Cc2ccccc2)C(=O)N[C@@H](Cc2ccc(O)cc2)C(=O)N[C@@H](CC(=O)O)C1=O [Example 1014] ({CH2CO}-FYD[NHexGly]YLDRL[Ahp(2)]PVDCG-NH2; thioether N-14) | 18.4 nM |

Continued, values first:

| IC50 | SMILES |
| --- | --- |
| 34 nM | CCCCCCN1CC(=O)N[C@@H](Cc2ccc(O)cc2)C(=O)N[C@@H](CCCC)C(=O)NCC(=O)N[C@@H](CCCNC(=N)N)C(=O)N[C@@H](CC(C)C)C(=O)N[C@@H](CCCCC)C(=O)N2CCC[C@H]2C(=O)N[C@@H](C(C)C)C(=O)N[C@@H](CC(=O)O)C(=O)N[C@H](C(=O)NCC(N)=O)CSCC(=O)N[C@@H](Cc2ccccc2)C(=O)N[C@@H](Cc2ccc(O)cc2)C(=O)N[C@@H](CC(=O)O)C1=O [Example 1017] ({CH2CO}-FYD[NHexGly]Y[Nle]GRL[Ahp(2)]PVDCG-NH2; thioether N-14) |
| 34.7 nM | CCCCCCN1CC(=O)N[C@@H](Cc2ccc(O)cc2)C(=O)N[C@@H](CCCCC)C(=O)N[C@@H](CC(N)=O)C(=O)N[C@@H](CCCNC(=N)N)C(=O)N[C@@H](CC(C)C)C(=O)N[C@@H](CCCCC)C(=O)N2CCC[C@H]2C(=O)N[C@@H](C(C)C)C(=O)N[C@@H](CO)C(=O)N[C@H](C(=O)NCC(N)=O)CSCC(=O)N[C@@H](Cc2ccccc2)C(=O)N[C@@H](Cc2ccc(O)cc2)C(=O)N[C@@H](CC(=O)O)C1=O [Example 1031] ({CH2CO}-FYD[NHexGly]Y[Ahp(2)]NRL[Ahp(2)]PVSCG-NH2; thioether N-14) |
| 38.6 nM | CCCCCCN1CC(=O)N[C@@H](Cc2ccc(O)cc2)C(=O)N[C@@H](CCCCC)C(=O)N[C@@H](CC(N)=O)C(=O)N[C@@H](CCCNC(=N)N)C(=O)N[C@@H](CC(C)C)C(=O)N[C@@H](CCCCC)C(=O)N2CCC[C@H]2C(=O)N[C@@H](C(C)C)C(=O)N[C@@H](C)C(=O)N[C@H](C(=O)NCC(N)=O)CSCC(=O)N[C@@H](Cc2ccccc2)C(=O)N[C@@H](Cc2ccc(O)cc2)C(=O)N[C@@H](CC(=O)O)C1=O [Example 1006] ({CH2CO}-FYD[NHexGly]Y[Ahp(2)]NRL[Ahp(2)]PVACG-NH2; thioether N-14) |

Same assay, conditions: cell-based binding high-content assay, mVISTA; read-out: HC CBA miPr ISTA IC50

| IC50 | SMILES |
| --- | --- |
| 17.5 nM | CCCCCCN1CC(=O)N[C@@H](Cc2ccc(O)cc2)C(=O)N[C@@H](CC(C)C)C(=O)N[C@@H](CC(N)=O)C(=O)N[C@@H](CCCNC(=N)N)C(=O)N(C)[C@@H](CC(C)C)C(=O)N[C@@H](CCCCC)C(=O)N2CCC[C@H]2C(=O)N[C@@H](C(C)(C)C)C(=O)N[C@@H](CC(=O)O)C(=O)N[C@H](C(=O)N[C@@H](CC(=O)NCCOCCOCC(=O)N[C@@H](CC(=O)O)C(=O)NCCOCCOCC(=O)NCCCCCCCCCCC(=O)O)C(=O)O)CSCC(=O)N[C@@H](Cc2ccccc2)C(=O)N[C@@H](Cc2ccc(O)cc2)C(=O)N[C@@H](CC(=O)O)C1=O [compound 2026] ({CH2CO}-FYD[NHexGly]YLNR[NMeL][Ahp(2)]P[Tle]DC[βAsp][AEEA]D[AEEA][Aun]-OH; thioether N-14) |
| 41.2 nM | CCCCCCN1CC(=O)N[C@@H](Cc2ccc(O)cc2)C(=O)N[C@@H](CC(C)C)C(=O)N[C@@H](CC(N)=O)C(=O)N[C@@H](CCCN)C(=O)N(C)[C@@H](CO)C(=O)N[C@@H](CCCCC)C(=O)N2CCC[C@H]2C(=O)N[C@@H](C(C)(C)C)C(=O)N[C@@H](CC(=O)O)C(=O)N[C@H](C(=O)N[C@@H](CC(=O)NCCOCCOCC(=O)N[C@@H](CC(=O)O)C(=O)NCCOCCOCC(=O)NCCCCCCCCCCC(=O)O)C(=O)O)CSCC(=O)N[C@@H](Cc2ccccc2)C(=O)N[C@@H](Cc2ccc(O)cc2)C(=O)N[C@@H](CC(=O)O)C1=O [compound 2044] ({CH2CO}-FYD[NHexGly]YLN[Orn][NMeS][Ahp(2)]P[Tle]DC[βAsp][AEEA]D[AEEA][Aun]-OH; thioether N-14) |
| 22.8 nM | CCCCCCN1CC(=O)N[C@@H](Cc2ccc(O)cc2)C(=O)N[C@@H](CC(C)C)C(=O)N[C@@H](CC(N)=O)C(=O)N[C@@H](CCCNC(=N)N)C(=O)N(C)[C@@H](CCCC)C(=O)N[C@@H](CCCCC)C(=O)N2CCC[C@H]2C(=O)N[C@@H](C(C)(C)C)C(=O)N[C@@H](CO)C(=O)N[C@H](C(=O)N[C@@H](CC(=O)NCCOCCOCC(=O)N[C@@H](CC(=O)O)C(=O)NCCOCCOCC(=O)NCCCCCCCCCCC(=O)O)C(=O)O)CSCC(=O)N[C@@H](Cc2ccccc2)C(=O)N[C@@H](Cc2ccc(O)cc2)C(=O)N[C@@H](CC(=O)O)C1=O [compound 2030] ({CH2CO}-FYD[NHexGly]YLNR[NMeNle][Ahp(2)]P[Tle]SC[βAsp][AEEA]D[AEEA][Aun]-OH; thioether N-14) |

Same assay, conditions: read-out: HC CBA mVISTA IC50

| IC50 | SMILES |
| --- | --- |
| 24.9 nM | CCCCCCN1CC(=O)N[C@@H](Cc2ccc(O)cc2)C(=O)N[C@@H](CCCC)C(=O)N[C@@H](CC(N)=O)C(=O)N[C@@H](CCCN)C(=O)N(C)[C@@H](CCCC)C(=O)N[C@@H](CCCCC)C(=O)N2CCC[C@H]2C(=O)N[C@@H](C(C)(C)C)C(=O)N[C@@H](CO)C(=O)N[C@H](C(=O)N[C@@H](CC(=O)O)C(N)=O)CSCC(=O)N[C@@H](Cc2ccccc2)C(=O)N[C@@H](Cc2c[nH]c3ccccc23)C(=O)N[C@@H](CC(=O)O)C1=O [Example 1374] ({CH2CO}-FWD[NHexGly]Y[Nle]N[Orn][NMeNle][Ahp(2)]P[Tle]SCD-NH2; thioether N-14) |
| 19.7 nM | CCCCCCN1CC(=O)N[C@@H](Cc2ccc(O)cc2)C(=O)N[C@@H](CCCC)C(=O)N[C@@H](CC(N)=O)C(=O)N[C@@H](CCCNC(=N)N)C(=O)N(C)[C@@H](CCCC)C(=O)N[C@@H](CCCCC)C(=O)N2CCC[C@H]2C(=O)N[C@@H](C(C)(C)C)C(=O)N[C@@H](CO)C(=O)N[C@H](C(=O)N[C@@H](CC(=O)NCCOCCOCC(=O)NCCCCCCCCCCC(=O)O)C(=O)O)CSCC(=O)N[C@@H](Cc2ccccc2)C(=O)N[C@@H](Cc2c[nH]c3ccccc23)C(=O)N[C@@H](CC(=O)O)C1=O [Example 2191] ({CH2CO}-FWD[NHexGly]Y[Nle]NR[NMeNle][Ahp(2)]P[Tle]SC[βAsp][AEEA][Aun]-OH; thioether N-14) |
| 29.6 nM | CCCCCCN1CC(=O)N[C@@H](Cc2ccc(O)cc2)C(=O)N[C@@H](CCCC)C(=O)N[C@@H](CC(N)=O)C(=O)N[C@@H](CCCNC(=N)N)C(=O)N(C)[C@@H](C)C(=O)N[C@@H](CCCCC)C(=O)N2CCC[C@H]2C(=O)N[C@@H](C(C)(C)C)C(=O)N[C@@H](CO)C(=O)N[C@H](C(=O)NCCOCCOCC(=O)N[C@@H](CCC(=O)NCCOCCOCC(=O)NCCCCCCCCCCC(=O)O)C(=O)O)CSCC(=O)N[C@@H](Cc2ccccc2)C(=O)N[C@@H](Cc2c[nH]c3ccccc23)C(=O)N[C@@H](CC(=O)O)C1=O [compound 2247] ({CH2CO}-FWD[NHexGly]Y[Nle]NR[NMeA][Ahp(2)]P[Tle]SC[AEEA][γGlu][AEEA][Aun]-OH; thioether N-14) |

| SMILES | IC50 |
| --- | --- |
| CCCCCCN1CC(=O)N[C@@H](Cc2ccc(O)cc2)C(=O)N[C@@H](CC(C)C)C(=O)N[C@@H](CC(N)=O)C(=O)N[C@@H](CCCNC(=N)N)C(=O)N(C)[C@@H](CCCC)C(=O)N[C@@H](CCCCC)C(=O)N2CCC[C@H]2C(=O)N[C@@H](C(C)(C)C)C(=O)N[C@@H](CO)C(=O)N[C@H](C(=O)NCC(N)=O)CSCC(=O)N[C@@H](Cc2ccc(C(N)=O)cc2)C(=O)N[C@@H](Cc2ccc(O)cc2)C(=O)N[C@@H](CC(=O)O)C1=O [compound 1212] ({CH2CO}-[Phe(4-CONH2)]YD[NHexGly]YLNR[NMeNle][Ahp(2)]P[Tle]SCG-NH2; thioether N-14) | 13.1 nM |

— US20240218022A1, “ANTI-VISTA MACROCYCLIC PEPTIDES AND COMPOSITIONS” (BRISTOL-MYERS SQUIBB COMPANY, priority 2022, published 2024)
